Experimental data published in US20220031710A1, “USE OF ERK5 INHIBITORS FOR TREATING GLIOMAS IN PEDIATRIC SUBJECTS” (UNIVERSITY OF PITTSBURGH - OF THE COMMONWEALTH SYSTEM OF …, priority 2019, published 2022).
One block for each compound: values may come before it. Where a SMILES comes first, the peptide text is derived from it. The star is where a group is joined. Cbz = O=C(OCc1ccccc1)*

Experiments:
[1] = tested on: NSCs; assay: Direct Trypan-Blue automated cell count of NSCs treated with EZH2 inhibitor; type: cell-based, human; details: GSK343 (504), over 5 days
Experimental: Direct cell counts were performed using the Countess II FL Automated Cell Counter (ThermoFisher Scientific). Alamar blue viability (ThermoFisher Scientific) and the 5-bromo-2′-deoxyuridine (BrdU) incorporated cell proliferation assay (Cell Signaling Technology Cat #6813) were performed using the manufacturer's standard protocol. EC50 curve analysis was performed using raw fluorescent Alamar blue values that were inputted into PRISM 7.0. Drug concentrations were log 10 transformed and values normalized to percent viability with respect to vehicle treated cells. EC50 values were interpolated from a log inhibitor vs. normalized response with variable slope using a least square fit model.

[2] = biological target: T1, EZH2 (Homo sapiens, UniProt Q15910); assay: Western blot of H3K27Me3, RAS activation and p16 in NSCs treated with EZH2 inhibitor; type: cell-based; details: GSK343 (504)
T1 construct: endogenous in cells; host or cells: H9 hESC-derived human neural stem cells
Experimental: RAS activity was measured using the RAS activation assay (Cell Signaling Technology, Cat #8814). Briefly, active Ras Detection GST-RAF1-RBD fusion protein was used to bind the activated form of GTP-bound RAS, which was then immunoprecipitated from 500 μg of total cell lysate with glutathione resin. RAS activation levels were then determined by western blot using a RAS Mouse mAb. Activated RAS immune-precipitate was normalized to total RAS from whole cell lysate.
(§1) Cell pellets were lysed in PLC lysis buffer containing protease and phosphatase inhibitors (Roche Inc.). Protein lysates were quantified using the bicinchoninic acid (BCA) assay (Pierce Chemical Co., Rockford, Ill.). 30 μg of total protein lysate was loaded in 10% SDS-PAGE gels and electrophoresed. Proteins were transferred to PVDF membranes using a semi-dry transfer apparatus (Bio-Rad). Membranes were blocked for one hour and probed for various proteins overnight in 5% non-fat milk or 5% BSA in Tris Buffered Saline Solution, 0.5% Tween-20 (TBST) or Phosphate Buffered Saline Solution with 0.5% Tween-20 (PBST). Membranes were washed for 5 mins in TBST (3×) and incubated with horseradish peroxidase-conjugated antibodies specific for the primary antibody (BioRad Laboratories, Inc., CA, USA). Binding was detected using Chemiluminescence Reagent Plus (PerkinElmer Inc., MA, USA).

[3] = tested on: MYC; assay: Western blot of phospho MYC S62 and total MYC in DIPG cells; type: cell-based, human; details: DIPG-IV cells with ERK5 knockdown (Dox); MG132 10 uM
Experimental: as §1

[4] = tested on: RASAL1; assay: Western blot of RASAL1 after decitabine treatment; type: cell-based, human; details: DIPG-007 and NSC H3K27M cells; 5 days; 1 μM
Experimental: as §1

T1 sequence (Q15910 whole entry): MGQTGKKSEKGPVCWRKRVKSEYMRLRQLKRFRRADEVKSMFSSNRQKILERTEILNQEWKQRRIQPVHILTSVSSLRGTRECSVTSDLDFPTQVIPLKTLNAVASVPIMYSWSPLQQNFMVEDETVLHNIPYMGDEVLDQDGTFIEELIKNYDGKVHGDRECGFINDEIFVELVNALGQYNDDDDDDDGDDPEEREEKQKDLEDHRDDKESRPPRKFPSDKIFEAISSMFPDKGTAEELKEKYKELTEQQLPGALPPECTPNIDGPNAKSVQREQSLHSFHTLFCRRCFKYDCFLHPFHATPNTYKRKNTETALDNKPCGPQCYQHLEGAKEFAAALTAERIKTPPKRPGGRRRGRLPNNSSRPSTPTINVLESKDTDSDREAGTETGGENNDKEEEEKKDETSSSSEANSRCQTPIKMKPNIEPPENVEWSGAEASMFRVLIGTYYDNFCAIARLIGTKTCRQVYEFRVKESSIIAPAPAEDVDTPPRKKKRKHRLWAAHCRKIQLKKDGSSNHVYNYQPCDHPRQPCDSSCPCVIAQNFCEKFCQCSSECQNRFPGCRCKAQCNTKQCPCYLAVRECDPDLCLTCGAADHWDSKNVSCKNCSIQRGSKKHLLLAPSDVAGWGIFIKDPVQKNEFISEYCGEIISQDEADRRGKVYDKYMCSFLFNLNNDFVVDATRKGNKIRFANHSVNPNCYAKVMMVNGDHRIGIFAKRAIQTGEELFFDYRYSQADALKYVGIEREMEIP
T1 sequence (O75530 whole entry partner): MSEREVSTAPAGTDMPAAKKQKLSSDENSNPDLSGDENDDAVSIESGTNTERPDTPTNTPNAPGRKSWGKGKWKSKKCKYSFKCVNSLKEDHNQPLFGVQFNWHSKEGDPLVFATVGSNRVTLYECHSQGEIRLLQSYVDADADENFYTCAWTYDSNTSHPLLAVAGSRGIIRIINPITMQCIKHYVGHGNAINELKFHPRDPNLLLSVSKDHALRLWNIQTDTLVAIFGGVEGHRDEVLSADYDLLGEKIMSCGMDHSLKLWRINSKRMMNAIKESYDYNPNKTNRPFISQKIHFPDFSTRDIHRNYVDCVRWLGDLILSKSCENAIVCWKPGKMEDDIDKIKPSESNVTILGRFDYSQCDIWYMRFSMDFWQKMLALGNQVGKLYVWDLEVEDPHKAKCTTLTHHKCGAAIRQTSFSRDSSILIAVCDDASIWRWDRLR
T1 sequence (Q15022 whole entry partner): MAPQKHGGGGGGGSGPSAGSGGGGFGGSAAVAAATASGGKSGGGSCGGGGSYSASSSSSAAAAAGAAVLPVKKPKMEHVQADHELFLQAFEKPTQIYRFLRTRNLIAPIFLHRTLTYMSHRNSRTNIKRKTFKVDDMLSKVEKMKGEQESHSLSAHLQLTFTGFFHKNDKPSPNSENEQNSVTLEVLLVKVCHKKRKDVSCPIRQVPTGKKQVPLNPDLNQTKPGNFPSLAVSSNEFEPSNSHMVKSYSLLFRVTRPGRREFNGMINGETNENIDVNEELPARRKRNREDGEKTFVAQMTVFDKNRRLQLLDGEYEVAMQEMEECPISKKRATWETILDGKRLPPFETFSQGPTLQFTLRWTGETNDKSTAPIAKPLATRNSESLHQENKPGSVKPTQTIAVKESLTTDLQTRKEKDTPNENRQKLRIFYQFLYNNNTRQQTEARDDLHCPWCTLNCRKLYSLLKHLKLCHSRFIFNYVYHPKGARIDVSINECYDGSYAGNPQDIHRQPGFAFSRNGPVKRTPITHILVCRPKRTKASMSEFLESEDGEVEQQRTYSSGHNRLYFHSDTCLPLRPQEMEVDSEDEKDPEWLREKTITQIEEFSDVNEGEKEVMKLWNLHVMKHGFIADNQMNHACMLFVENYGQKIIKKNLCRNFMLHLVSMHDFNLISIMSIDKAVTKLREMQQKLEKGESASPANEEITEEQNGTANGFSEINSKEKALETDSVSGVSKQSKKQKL
T1 sequence (Q09028 whole entry partner): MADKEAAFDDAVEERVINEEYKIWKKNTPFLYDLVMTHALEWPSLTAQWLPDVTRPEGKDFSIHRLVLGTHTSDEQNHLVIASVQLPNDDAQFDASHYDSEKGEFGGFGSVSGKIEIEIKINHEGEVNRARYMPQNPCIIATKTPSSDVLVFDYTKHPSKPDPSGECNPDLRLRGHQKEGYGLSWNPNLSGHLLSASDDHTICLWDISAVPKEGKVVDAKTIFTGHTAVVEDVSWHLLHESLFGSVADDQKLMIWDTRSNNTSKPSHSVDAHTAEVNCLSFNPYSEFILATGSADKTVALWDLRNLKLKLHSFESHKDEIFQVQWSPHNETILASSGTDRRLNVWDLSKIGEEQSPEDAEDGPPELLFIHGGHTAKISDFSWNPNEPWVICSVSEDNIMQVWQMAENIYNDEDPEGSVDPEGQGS

- CDKN2A locus (p16 protein immunoblot) [2]: activation of the CDKN2A locus
- H3K27Me3 [2]: loss of H3K27Me3
- activated RAS [2]: reduced activated RAS
Compound: CCCc1cc(C)[nH]c(=O)c1CNC(=O)c1cc(-c2ccnc(N3CCN(C)CC3)c2)cc2c1cnn2C(C)C [GSK343]
- cell proliferation [1]: reduced cell proliferation

Compound: CC(C)C[C@@H](C=O)NC(=O)[C@H](CC(C)C)NC(=O)[C@H](CC(C)C)NC(=O)OCc1ccccc1 [MG132] (Cbz-Leu-Leu-Leu-aldehyde)
- protein expression of total MYC [3]: restored

Compound: Nc1ncn([C@H]2C[C@H](O)[C@@H](CO)O2)c(=O)n1 [decitabine, 5-aza-2′-deoxycytidine]
- expression of RASAL1 protein [4]: restored
